Assay results reported in ChEMBL document CHEMBL5236646, “Design, synthesis, and biological evaluation of BRD4 degraders” (Bioorg Med Chem, 2023).
Calls of active or inactive are those of the source. The rule behind the calls is not given here.

What was measured:
[1] = biological target: T1, Protein cereblon/Bromodomain-containing protein 4 (Homo sapiens) (UniProt O60885+Q96SW2); assay: Protac activity at CRBN/BRD4 in human MV4-11 cells assessed as induction of BRD4 protein degradation by measuring residual activity at 0.03 uM incubated for 3 hrs by Western blot analysis relative to control; type: cell-based
T1 sequence (Q96SW2 whole entry, looked up, other chains not shown): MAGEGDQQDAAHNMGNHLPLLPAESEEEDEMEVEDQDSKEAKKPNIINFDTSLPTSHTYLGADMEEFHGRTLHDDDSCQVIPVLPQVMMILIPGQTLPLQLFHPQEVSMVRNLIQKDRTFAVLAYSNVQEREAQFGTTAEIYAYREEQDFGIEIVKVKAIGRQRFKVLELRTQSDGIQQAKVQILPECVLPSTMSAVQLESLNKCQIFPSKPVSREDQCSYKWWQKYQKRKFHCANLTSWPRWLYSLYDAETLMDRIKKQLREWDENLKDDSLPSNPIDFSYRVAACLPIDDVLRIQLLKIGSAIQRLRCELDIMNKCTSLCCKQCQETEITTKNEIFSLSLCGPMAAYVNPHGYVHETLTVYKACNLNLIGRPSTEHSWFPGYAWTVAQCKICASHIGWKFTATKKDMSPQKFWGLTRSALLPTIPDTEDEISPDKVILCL

MV4-11 = assay: Antiproliferative activity against human […] cells assessed as inhibition of cell growth incubated for 72 hrs MTS assay; type: functional, cell-based; conditions: MV4-11, 72 h
[2] = biological target: T1, Protein cereblon/Bromodomain-containing protein 4 (Homo sapiens); assay: Protac activity at CRBN/BRD4 in human MM1.S cells assessed as induction of BRD4 protein degradation by measuring residual activity at 0.04 uM incubated for 3 hrs by Western blot analysis relative to control; type: cell-based
[3] = biological target: T1, Protein cereblon/Bromodomain-containing protein 4 (Homo sapiens); assay: Protac activity at CRBN/BRD4 in human MM1.S cells assessed as induction of BRD4 protein degradation by measuring residual activity at 0.36 uM incubated for 3 hrs by Western blot analysis relative to control; type: cell-based
MM1.S = assay: Antiproliferative activity against human MM1.S cells assessed as inhibition of cell growth incubated for 72 hrs MTS assay; type: functional, cell-based
[4] = biological target: T1, Protein cereblon/Bromodomain-containing protein 4 (Homo sapiens); assay: Protac activity at CRBN/BRD4 in human MM1.S cells assessed as induction of BRD4 protein degradation by measuring residual activity at 0.12 uM incubated for 3 hrs by Western blot analysis relative to control; type: cell-based
[5] = biological target: T1, Protein cereblon/Bromodomain-containing protein 4 (Homo sapiens); assay: Protac activity at CRBN/BRD4 in human MV4-11 cells assessed as induction of BRD4 protein degradation by measuring residual activity at 0.09 uM incubated for 3 hrs by Western blot analysis relative to control; type: cell-based
[6] = biological target: T1, Protein cereblon/Bromodomain-containing protein 4 (Homo sapiens); assay: Protac activity at CRBN/BRD4 in human MV4-11 cells assessed as induction of BRD4 protein degradation by measuring residual activity at 0.01 uM incubated for 3 hrs by Western blot analysis relative to control; type: cell-based
[7] = Inhibition of TGF-beta induced activation of human MRC5 cells assessed as residual BRD4 protein level at 0.5 uM by Western blot analysis (reference value: 96%); type: functional
[8] = Inhibition of TGF-beta induced activation of human MRC5 cells assessed as residual BRD4 protein level at 0.1 uM by Western blot analysis (reference value: 96%); type: functional
[9] = biological target: T1, Protein cereblon/Bromodomain-containing protein 4 (Homo sapiens); assay: Protac activity at CRBN/BRD4 in human MV4-11 cells assessed as induction of BRD4 protein degradation by measuring residual activity at 0.006 uM incubated for 3 hrs by Western blot analysis relative to control; type: cell-based
[10] = biological target: T1, Protein cereblon/Bromodomain-containing protein 4 (Homo sapiens); assay: Protac activity at CRBN/BRD4 in human MM1.S cells assessed as induction of BRD4 protein degradation by measuring residual activity at 0.06 uM incubated for 3 hrs by Western blot analysis relative to control; type: cell-based
[11] = biological target: T1, Protein cereblon/Bromodomain-containing protein 4 (Homo sapiens); assay: Protac activity at CRBN/BRD4 in human MV4-11 cells assessed as induction of BRD4 protein degradation by measuring residual activity at 0.018 uM incubated for 3 hrs by Western blot analysis relative to control; type: cell-based
[12] = biological target: T1, Protein cereblon/Bromodomain-containing protein 4 (Homo sapiens); assay: Protac activity at CRBN/BRD4 in human MM1.S cells assessed as induction of BRD4 protein degradation by measuring residual activity at 0.18 uM incubated for 3 hrs by Western blot analysis relative to control; type: cell-based
[13] = biological target: T1, Protein cereblon/Bromodomain-containing protein 4 (Homo sapiens); assay: Protac activity at CRBN/BRD4 in human MM1.S cells assessed as induction of BRD4 protein degradation by measuring residual activity at 0.54 uM incubated for 3 hrs by Western blot analysis relative to control; type: cell-based
[14] = biological target: T1, Protein cereblon/Bromodomain-containing protein 4 (Homo sapiens); assay: Protac activity at CRBN/BRD4 in human MV4-11 cells assessed as induction of BRD4 protein degradation by measuring residual activity at 0.054 uM incubated for 3 hrs by Western blot analysis relative to control; type: cell-based
[15] = biological target: T1, Protein cereblon/Bromodomain-containing protein 4 (Homo sapiens); assay: Protac activity at CRBN/BRD4 in human MV4-11 cells assessed as induction of BRD4 protein degradation by measuring residual activity at 0.06 uM incubated for 3 hrs by Western blot analysis relative to control; type: cell-based
[16] = biological target: T1, Protein cereblon/Bromodomain-containing protein 4 (Homo sapiens); assay: Protac activity at CRBN/BRD4 in human MM1.S cells assessed as induction of BRD4 protein degradation by measuring residual activity at 0.3 uM incubated for 3 hrs by Western blot analysis relative to control; type: cell-based
[17] = biological target: T1, Protein cereblon/Bromodomain-containing protein 4 (Homo sapiens); assay: Protac activity at CRBN/BRD4 in human MV4-11 cells assessed as induction of BRD4 protein degradation by measuring residual activity at 0.18 uM incubated for 3 hrs by Western blot analysis relative to control; type: cell-based
[18] = biological target: T1, Protein cereblon/Bromodomain-containing protein 4 (Homo sapiens); assay: Protac activity at CRBN/BRD4 in human MM1.S cells assessed as induction of BRD4 protein degradation by measuring residual activity at 0.1 uM incubated for 3 hrs by Western blot analysis relative to control; type: cell-based
[19] = biological target: T1, Protein cereblon/Bromodomain-containing protein 4 (Homo sapiens); assay: Protac activity at CRBN/BRD4 in human MV4-11 cells assessed as induction of BRD4 protein degradation by measuring residual activity at 0.02 uM incubated for 3 hrs by Western blot analysis relative to control; type: cell-based
[20] = biological target: T1, Protein cereblon/Bromodomain-containing protein 4 (Homo sapiens); assay: Protac activity at CRBN/BRD4 in human MM1.S cells assessed as induction of BRD4 protein degradation by measuring residual activity at 1 uM incubated for 3 hrs by Western blot analysis relative to control; type: cell-based
[21] = biological target: T1, Protein cereblon/Bromodomain-containing protein 4 (Homo sapiens); assay: Protac activity at CRBN/BRD4 in human MM1.S cells assessed as induction of BRD4 protein degradation by measuring residual activity at 0.2 uM incubated for 3 hrs by Western blot analysis relative to control; type: cell-based
[22] = biological target: T1, Protein cereblon/Bromodomain-containing protein 4 (Homo sapiens); assay: Protac activity at CRBN/BRD4 in human MM1.S cells assessed as induction of BRD4 protein degradation by measuring residual activity at 0.07 uM incubated for 3 hrs by Western blot analysis relative to control; type: cell-based
[23] = biological target: T1, Protein cereblon/Bromodomain-containing protein 4 (Homo sapiens); assay: Protac activity at CRBN/BRD4 in human MM1.S cells assessed as downregulation of MYC protein expression at […] incubated for 3 hrs by Western blot analysis; type: cell-based
[24] = biological target: T1, Protein cereblon/Bromodomain-containing protein 4 (Homo sapiens); assay: Protac activity at CRBN/BRD4 in human MM1.S cells assessed as induction of BRD4 protein degradation by measuring residual activity at 0.6 uM incubated for 3 hrs by Western blot analysis relative to control; type: cell-based
[25] = biological target: T1, Protein cereblon/Bromodomain-containing protein 4 (Homo sapiens); assay: Protac activity at CRBN/BRD4 in human MV4-11 cells assessed as induction of BRD4 protein degradation by measuring residual activity at 100 nM measured after 6 hrs by Western blot analysis (reference value: 100%); type: cell-based
[26] = biological target: T1, Protein cereblon/Bromodomain-containing protein 4 (Homo sapiens); assay: Protac activity at CRBN/BRD4 in human MM1.S cells assessed as induction of BRD4 protein degradation by measuring residual activity at 0.03 uM incubated for 3 hrs by Western blot analysis relative to control; type: cell-based
[27] = biological target: T1, Protein cereblon/Bromodomain-containing protein 4 (Homo sapiens); assay: Protac activity at CRBN/BRD4 in human MV4-11 cells assessed as induction of BRD4 protein degradation by measuring residual activity at 30 nM measured after 6 hrs by Western blot analysis (reference value: 100%); type: cell-based
[28] = biological target: T1, Protein cereblon/Bromodomain-containing protein 4 (Homo sapiens); assay: Protac activity at CRBN/BRD4 in human MM1.S cells assessed as induction of BRD4 protein degradation by measuring residual activity at 1000 nM measured after 6 hrs by Western blot analysis (reference value: 100%); type: cell-based
[29] = biological target: T1, Protein cereblon/Bromodomain-containing protein 4 (Homo sapiens); assay: Protac activity at CRBN/BRD4 in human MV4-11 cells assessed as induction of BRD4 protein degradation by measuring residual activity at 10 nM measured after 6 hrs by Western blot analysis (reference value: 100%); type: cell-based
[30] = biological target: T1, Protein cereblon/Bromodomain-containing protein 4 (Homo sapiens); assay: Protac activity at CRBN/BRD4 in human MM1.S cells assessed as induction of BRD4 protein degradation by measuring residual activity at 100 nM measured after 6 hrs by Western blot analysis (reference value: 100%); type: cell-based
[31] = biological target: T1, Protein cereblon/Bromodomain-containing protein 4 (Homo sapiens); assay: Protac activity at CRBN/BRD4 in human MM1.S cells assessed as induction of BRD4 protein degradation by measuring residual activity at 300 nM measured after 6 hrs by Western blot analysis (reference value: 100%); type: cell-based
[32] = biological target: T1, Protein cereblon/Bromodomain-containing protein 4 (Homo sapiens); assay: Protac activity at CRBN/BRD4 in human MV4-11 cells assessed as induction of BRD4 protein degradation by measuring residual activity at 0.003 uM incubated for 3 hrs by Western blot analysis relative to control; type: cell-based
[33] = biological target: T1, Protein cereblon/Bromodomain-containing protein 4 (Homo sapiens); assay: Protac activity at CRBN/BRD4 in human MV4-11 cells assessed as induction of BRD4 protein degradation by measuring residual activity at 0.009 uM incubated for 3 hrs by Western blot analysis relative to control; type: cell-based
[34] = biological target: T1, Protein cereblon/Bromodomain-containing protein 4 (Homo sapiens); assay: Protac activity at CRBN/BRD4 in human MV4-11 cells assessed as induction of BRD4 protein degradation by measuring residual activity at 0.027 uM incubated for 3 hrs by Western blot analysis relative to control; type: cell-based

SMILES | Activity [1] | IC50 (MV4-11) | IC50 (MM1.S) | Activity [5] | Activity [6] | Activity [16] | Activity [18] | Activity [23] | Activity [26] | also measured
Cc1sc2c(c1C)C(c1ccc(Cl)cc1)=N[C@@H](CC(=O)NCCCCC(=O)NCc1ccc(CNc3cccc4c3C(=O)N(C3CCC(=O)NC3=O)C4=O)cc1)c1nnc(C)n1-2 (some centres not stated) | 104% | 26 nM | 131 nM | 112% | 103% |  |  |  |  | Activity [2]: 121%; Activity [3]: 116%; Activity [4]: 125%
Cc1sc2c(c1C)C(c1ccc(Cl)cc1)=N[C@@H](CC(=O)OC(C)(C)C)c1nnc(C)n1-2 |  | 42 nM | 62 nM |  |  |  |  |  |  | 
COC(=O)c1ccc2c(c1)NC(=O)/C2=C(\Nc1ccc(N(C)C(=O)CN2CCN(C)CC2)cc1)c1ccccc1 [NINTEDANIB] |  |  |  |  |  |  |  |  |  | Activity [7]: 71%; Activity [8]: 88%
Cc1sc2c(c1C)C(c1ccc(Cl)cc1)=N[C@@H](CC(=O)NCCCCC(=O)NCCOc1cccc3c1C(=O)N(C1CCC(=O)NC1=O)C3=O)c1nnc(C)n1-2 (some centres not stated) |  | 18 nM | 163 nM |  |  |  |  |  |  | Activity [9]: 105%; Activity [10]: 90%; Activity [11]: 105%; Activity [12]: 111%; Activity [13]: 111%; Activity [14]: 117%
Cc1sc2c(c1C)C(c1ccc(Cl)cc1)=N[C@@H](CC(=O)NCCNC(=O)c1ccc(COc3cccc4c3C(=O)N(C3CCC(=O)NC3=O)C4=O)cc1)c1nnc(C)n1-2 (some centres not stated) |  | 48 nM | 544 nM |  |  | 136% | 117% |  |  | Activity [15]: 102%; Activity [17]: 82%; Activity [19]: 126%; Activity [20]: 123%
Cc1sc2c(c1C)C(c1ccc(Cl)cc1)=N[C@@H](CC(=O)NCCCNC(=O)c1ccc(COc3cccc4c3C(=O)N(C3CCC(=O)NC3=O)C4=O)cc1)c1nnc(C)n1-2 (some centres not stated) | 66% | 28 nM | 302 nM | 78% | 89% |  |  | inactive |  | Activity [21]: 108%; Activity [22]: 126%; Activity [24]: 84%
Cc1sc2c(c1C)C(c1ccc(Cl)cc1)=N[C@@H](CC(=O)NCCCCNC(=O)COc1cccc3c1C(=O)N(C1CCC(=O)NC1=O)C3=O)c1nnc(C)n1-2 (some centres not stated) | 132% | 13 nM | 141 nM | 48% | 137% | 54% | 87% | Active | 109% | Activity [25]: 0%; Activity [27]: 14%; Activity [28]: 40%; Activity [29]: 21%; Activity [30]: 26%; Activity [31]: 43%
Cc1sc2c(c1C)C(c1ccc(Cl)cc1)=N[C@@H](CC(=O)NCCCCCNC(=O)c1ccc(COc3cccc4c3C(=O)N(C3CCC(=O)NC3=O)C4=O)cc1)c1nnc(C)n1-2 (some centres not stated) |  | 8 nM | 110 nM |  |  | 75% | 86% | inactive | 87% | Activity [32]: 95%; Activity [33]: 96%; Activity [34]: 56%
Cc1sc2c(c1C)C(c1ccc(Cl)cc1)=N[C@@H](CC(=O)NCCCCNC(=O)c1ccc(COc3cccc4c3C(=O)N(C3CCC(=O)NC3=O)C4=O)cc1)c1nnc(C)n1-2 (some centres not stated) | 108% | 25 nM | 297 nM | 91% | 126% |  |  |  |  | Activity [21]: 97%; Activity [22]: 117%; Activity [24]: 87%
Cc1sc2c(c1C)C(c1ccc(Cl)cc1)=N[C@@H](CC(=O)NCCNC(=O)c1ccc(COc3cccc4c3CN(C3CCC(=O)NC3=O)C4=O)cc1)c1nnc(C)n1-2 (some centres not stated) | 141% | 18 nM | 182 nM | 120% | 141% | 89% | 92% |  | 99% | 
